Test results: ChEMBL document CHEMBL3879893, “Nuclear transport modulators and uses thereof” (2011)
Activity calls are given as the source filed them. The calls are words filed in the database; no cut-off is given here.

How the values were obtained:
LoVo = assay: Cytotoxicity against human LoVo cells after 72 hrs by CellTiter96 AQueous one solution cell proliferation assay; format: functional, cell-based
[1] = Antitumor activity against 350 mm'3 human HCT116 cells xenografted in mouse assessed as tumor growth inhibition at 150 mg/kg, sc qd administered for 5 days started on day 9 post 75 mg/kg dosing measured after day 24 relative to control; format: functional, HCT-116
NCI-H460 = assay: Cytotoxicity against human NCI-H460 cells after 72 hrs by CellTiter96 AQueous one solution cell proliferation assay; format: functional, cell-based
MM1.S [2] = assay: Antitumor activity against 130 mm'3 human MM1S cells xenografted in mouse assessed as tumor growth inhibition at 150 mg/kg, sc qd administered for 5 days; format: functional, organism-based
Homo sapiens [3] = species: Homo sapiens; assay: Cytotoxicity against human LS123 cells after 72 hrs by CellTiter96 AQueous one solution cell proliferation assay; format: functional, cell-based
HCC4006 = assay: Cytotoxicity against human HCC4006 cells after 72 hrs by CellTiter96 AQueous one solution cell proliferation assay; format: functional, cell-based
4T1 = assay: Cytotoxicity against mouse 4T1 cells after 72 hrs by CellTiter96 AQueous one solution cell proliferation assay; format: functional, cell-based
Exportin-1 [4] = molecular target: T1, Exportin-1 (Homo sapiens, UniProt O14980); assay: Inhibition of Crm1 in human Jurkat cells assessed as potentiation of bortezomib-induced antiproliferative activity by measuring cell survival at 30 to 300 nM after 72 hrs by MTT assay; format: cell-based
DU-145 = assay: Cytotoxicity against human DU145 cells after 72 hrs by CellTiter96 AQueous one solution cell proliferation assay; format: functional, cell-based
[5] = Antitumor activity against 350 mm'3 human HCT116 cells xenografted in mouse assessed as tumor growth inhibition at 75 mg/kg, sc qd administered for 5 days measured after day 24 relative to control; format: functional; conditions: HCT-116, sc, read-out: TGI
HCT-8 = assay: Cytotoxicity against human HCT8 cells after 72 hrs by CellTiter96 AQueous one solution cell proliferation assay; format: functional, cell-based
SW480 = assay: Cytotoxicity against human SW480 cells after 72 hrs by CellTiter96 AQueous one solution cell proliferation assay; format: functional, cell-based
Jurkat = assay: Cytotoxicity against human Jurkat cells after 72 hrs by CellTiter96 AQueous one solution cell proliferation assay; format: functional, cell-based
HPAC = assay: Cytotoxicity against human HPAC cells after 72 hrs by CellTiter96 AQueous one solution cell proliferation assay; format: functional, cell-based
NCI-H226 = assay: Cytotoxicity against human NCI-H226 cells after 72 hrs by CellTiter96 AQueous one solution cell proliferation assay; format: functional, cell-based
NCI-H2122 = assay: Cytotoxicity against human NCI-H2122 cells after 72 hrs by CellTiter96 AQueous one solution cell proliferation assay; format: functional, cell-based
WiDr = assay: Cytotoxicity against human WiDr cells after 72 hrs by CellTiter96 AQueous one solution cell proliferation assay; format: functional, cell-based
HCT-15 = assay: Cytotoxicity against human HCT15 cells after 72 hrs by CellTiter96 AQueous one solution cell proliferation assay; format: functional, cell-based
BL-41 = assay: Cytotoxicity against human BL41 cells after 72 hrs by CellTiter96 AQueous one solution cell proliferation assay; format: functional, cell-based
HeLa = assay: Cytotoxicity against human HeLa cells after 72 hrs by CellTiter96 AQueous one solution cell proliferation assay; format: functional, cell-based
HS-Sultan = assay: Cytotoxicity against human HS-Sultan cells after 72 hrs by CellTiter96 AQueous one solution cell proliferation assay; format: functional, cell-based
NCI-H2030 = assay: Cytotoxicity against human NCI-H2030 cells after 72 hrs by CellTiter96 AQueous one solution cell proliferation assay; format: functional, cell-based
MM1R = assay: Cytotoxicity against human MM1R cells after 72 hrs by CellTiter96 AQueous one solution cell proliferation assay; format: functional, cell-based
MCF7 = assay: Cytotoxicity against human MCF7 cells after 72 hrs by CellTiter96 AQueous one solution cell proliferation assay; format: functional, cell-based
HCT-116 = assay: Cytotoxicity against human HCT116 cells after 72 hrs by CellTiter96 AQueous one solution cell proliferation assay; format: functional, cell-based
SW-620 = assay: Cytotoxicity against human SW620 cells after 72 hrs by CellTiter96 AQueous one solution cell proliferation assay; format: functional, cell-based
[6] = Toxicity in mouse xenografted with 350 mm'3 human HCT116 cells assessed as effect on complete blood count at 150 mg/kg, sc qd administered for 5 days started on day 9 post 75 mg/kg dosing; format: organism-based, HCT-116; conditions: in vivo, 120 h
Exportin-1 [7] = molecular target: T1, Exportin-1; assay: Inhibition of Crm1 in human U2OS cells expressing GFP-fused HIV1 Rev assessed as decrease in nuclear export of GFP-fused HIV1 Rev after 1 hr by Hoechst 33258 staining-based assay; format: cell-based
Caov-3 = assay: Cytotoxicity against human Caov3 cells after 72 hrs by CellTiter96 AQueous one solution cell proliferation assay; format: functional, cell-based
HCC827 = assay: Cytotoxicity against human HCC827 cells after 72 hrs by CellTiter96 AQueous one solution cell proliferation assay; format: functional, cell-based
Exportin-1 [8] = molecular target: T1, Exportin-1; assay: Inhibition of Crm1 in human MM1R cells assessed as potentiation of bortezomib-induced antiproliferative activity by measuring cell survival at 30 to 300 nM after 72 hrs by MTT assay; format: cell-based
COLO 320 = assay: Cytotoxicity against human COLO320 cells after 72 hrs by CellTiter96 AQueous one solution cell proliferation assay; format: functional, cell-based
Exportin-1 [9] = molecular target: T1, Exportin-1; assay: Inhibition of Crm1 in human HS-Sultan cells assessed as potentiation of bortezomib-induced antiproliferative activity by measuring cell survival at 30 to 300 nM after 72 hrs by MTT assay; format: cell-based
RPMI18226 = assay: Cytotoxicity against human […] cells after 72 hrs by CellTiter96 AQueous one solution cell proliferation assay; format: functional, cell-based
LS180 = assay: Cytotoxicity against human LS180 cells after 72 hrs by CellTiter96 AQueous one solution cell proliferation assay; format: functional, cell-based
[10] = Toxicity in mouse xenografted with 350 mm'3 human HCT116 cells assessed as effect on clinical chemistry parameters at 150 mg/kg, sc qd administered for 5 days started on day 9 post 75 mg/kg dosing; format: organism-based, HCT-116; conditions: in vivo, 120 h
MG-63 = assay: Cytotoxicity against human MG63 cells after 72 hrs by CellTiter96 AQueous one solution cell proliferation assay; format: functional, cell-based
MM1.S [11] = assay: Antitumor activity against 1300 mm'3 human MM1S cells xenografted in mouse assessed as tumor growth inhibition at 150 mg/kg, sc qd administered for 5 days; format: functional, organism-based
DLD-1 = assay: Cytotoxicity against human DLD1 cells after 72 hrs by CellTiter96 AQueous one solution cell proliferation assay; format: functional, cell-based
786-0 = assay: Cytotoxicity against human 786-0 cells after 72 hrs by CellTiter96 AQueous one solution cell proliferation assay; format: functional, cell-based
PC-3 = assay: Cytotoxicity against human PC3 cells after 72 hrs by CellTiter96 AQueous one solution cell proliferation assay; format: functional, cell-based
Exportin-1 [12] = molecular target: T1, Exportin-1; assay: Inhibition of Crm1 in human MM1S cells assessed as potentiation of bortezomib-induced antiproliferative activity by measuring cell survival at 30 to 300 nM after 72 hrs by MTT assay; format: cell-based
NCI-H520 = assay: Cytotoxicity against human NCI-H520 cells after 72 hrs by CellTiter96 AQueous one solution cell proliferation assay; format: functional, cell-based
Homo sapiens [13] = species: Homo sapiens; assay: Cytotoxicity against human H2935 cells after 72 hrs by CellTiter96 AQueous one solution cell proliferation assay; format: functional, cell-based
NCI-H1838 = assay: Cytotoxicity against human NCI-H1838 cells after 72 hrs by CellTiter96 AQueous one solution cell proliferation assay; format: functional, cell-based

T1 sequence (O14980 whole entry): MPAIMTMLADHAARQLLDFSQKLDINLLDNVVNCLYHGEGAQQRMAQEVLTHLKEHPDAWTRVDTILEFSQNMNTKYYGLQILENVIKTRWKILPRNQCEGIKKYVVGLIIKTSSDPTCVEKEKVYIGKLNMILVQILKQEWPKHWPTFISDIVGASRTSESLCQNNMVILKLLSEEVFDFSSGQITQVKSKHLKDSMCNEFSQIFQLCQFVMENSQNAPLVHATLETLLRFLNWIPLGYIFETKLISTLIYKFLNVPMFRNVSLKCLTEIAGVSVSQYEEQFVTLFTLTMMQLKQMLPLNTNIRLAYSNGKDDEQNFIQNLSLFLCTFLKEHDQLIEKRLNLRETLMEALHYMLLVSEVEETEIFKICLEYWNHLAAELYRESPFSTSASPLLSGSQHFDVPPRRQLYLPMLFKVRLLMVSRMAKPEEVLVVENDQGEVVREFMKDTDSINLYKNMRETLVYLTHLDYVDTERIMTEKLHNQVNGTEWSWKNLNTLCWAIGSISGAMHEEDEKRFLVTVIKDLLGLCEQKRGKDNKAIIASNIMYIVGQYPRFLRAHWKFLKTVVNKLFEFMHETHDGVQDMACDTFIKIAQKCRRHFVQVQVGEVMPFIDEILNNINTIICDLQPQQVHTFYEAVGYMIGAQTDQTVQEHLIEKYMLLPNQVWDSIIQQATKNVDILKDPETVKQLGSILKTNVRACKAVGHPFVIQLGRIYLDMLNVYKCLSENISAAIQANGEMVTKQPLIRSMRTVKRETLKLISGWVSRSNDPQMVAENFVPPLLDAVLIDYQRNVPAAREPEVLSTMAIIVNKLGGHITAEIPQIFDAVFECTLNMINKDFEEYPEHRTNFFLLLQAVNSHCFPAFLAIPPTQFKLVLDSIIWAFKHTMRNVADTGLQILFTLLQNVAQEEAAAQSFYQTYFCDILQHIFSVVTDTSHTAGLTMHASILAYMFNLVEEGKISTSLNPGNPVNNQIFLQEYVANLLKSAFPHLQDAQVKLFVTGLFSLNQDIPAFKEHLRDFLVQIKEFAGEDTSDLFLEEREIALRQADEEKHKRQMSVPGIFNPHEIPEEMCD

For `CC(C)OC(=O)/C=C\n1cnc(-c2ccc(Cl)cc2)n1`, the Activity (LoVo) was “Active”, the TGI [1] was 60% and the Activity (NCI-H460) was “Active”. For the same compound, the TGI (MM1.S [2]) was “Active”, the Activity (Homo sapiens [3]) was “Active” and the Activity (HCC4006) was “Active”. For the same compound, the Activity (4T1) was “Active”, the inhibition (Exportin-1 [4]) was “Active” and the Activity (DU-145) was “Active”. The inhibition in vivo at 75 mg/kg [5] was 31%, the Activity (HCT-8) was “Active” and the Activity (SW480) was “Active”. The Activity (Jurkat) was “Active”, the Activity (HPAC) was “Active” and the Activity (NCI-H226) was “Active”. For the same compound, the Activity (NCI-H2122) was “Active”, the Activity (WiDr) was “Active” and the Activity (HCT-15) was “Active”. The Activity (BL-41) was “Active”, the Activity (HeLa) was “Active” and the Activity (HS-Sultan) was “Active”. The Activity (NCI-H2030) was “Active”, the Activity (MM1R) was “Active” and the Activity (MCF7) was “Active”. For the same compound, the Activity (HCT-116) was “Active”, the Activity (SW-620) was “Active” and the Activity [6] was “Non-Toxic”. For the same compound, the IC50 (Exportin-1 [7]) was ≤ 1000 nM, the Activity (Caov-3) was “Active” and the Activity (HCC827) was “Active”. The inhibition (Exportin-1 [8]) was “Active”, the Activity (COLO 320) was “Active” and the inhibition (Exportin-1 [9]) was “Active”. The Activity (RPMI18226) was “Active”, the Activity (LS180) was “Active” and the Activity [10] was “Non-Toxic”. For the same compound, the Activity (MG-63) was “Active”, the TGI (MM1.S [11]) was “Active” and the Activity (DLD-1) was “Active”. For the same compound, the Activity (786-0) was “Active”, the Activity (PC-3) was “Active” and the inhibition (Exportin-1 [12]) was “Active”. For the same compound, the Activity (NCI-H520) was “Active”, the Activity (Homo sapiens [13]) was “Active” and the Activity (NCI-H1838) was “Active”.
